Marks after values point to notes of the source that are not given here.
Legend:
[1] = rat; ketosis caused by long-chain and short-chain monocarboxylic acids; cited from earlier work
[2] = Liver weight and lipid level in liver tissues of mice fed test diets; format: in vivo, C57BL/6J mice; details: 10 weeks
Description: (§1) The obesity-inducing control diet used in the test was high-fat diet (HFD: 40% fat calorie, 17 g lard+3% corn oil/100 g diet). […] The normal diet group (Chow) was fed with commercially available rodent chow.
(§2) 5-week-old male C57BL/6J mice (Orient, Korea) were accustomed to the laboratory environment for 1 week while feeding solid feed. Then, they were randomly divided into normal diet, high-fat diet and test groups and bred for a total of 10 weeks. The diet was given between 10 and 11 a.m. every day together with water. Food intake was measured every day and body weight was measured once a week. In order to avoid transient body weight increase after feed intake, body weight was measured 2 hours after removing the feed. After fasting the test animal for at least 12 hours and anesthetizing with diethyl ether, blood, liver and visceral fat (epididymal fat, perirenal fat, mesenteric fat and retroperitoneal fat) were taken and weighed after washing with 0.1 M PBS (pH 7.4). Blood taken from the abdominal aorta was centrifuged at 1000×g for 15 minutes for the separation of plasma.
Lipids were extracted from the liver tissue according to Folch et al.'s method Folch J et al., J Biol Chem. 226: 497-509 (1957)). After adding 1 mL of distilled water to 0.25 g of liver tissue, the liver tissue was homogenized using a Polytron homogenizer (IKA-Werke GmbH & Co., Ultra-Turrax, Staufen, Germany). After adding 5 mL of chloroform:methanol solution (2:1, v/v) to the homogenate and mixing well, the mixture was centrifuged at 1000×g for 10 minutes. After adding 2 mL of chloroform:methanol solution (2:1, v/v) again to the supernatant, the same procedure was repeated to completely separate the lipid components of the liver. After adding 3 mL of chloroform:methanol:0.05% CaCl2 (3:48:47, v/v/v) solution to the remaining pellets and mixing well for 1 minute, followed by centrifugation at 1000×g for 10 minutes, the resulting pellets were completely dried with nitrogen gas. The dried lipids were dissolved in 1 mL of methanol and then analyzed.
The same kit (Bio Clinical System) as that used for the plasma analysis was used to measure the triglyceride and cholesterol levels of the liver tissue.

[3] = Biochemical analysis of blood (plasma lipids, glucose, ALT, AST) in mice fed test diets; format: in vivo, C57BL/6J mice; details: 10 weeks
Description: as §1, §2
After 10 weeks of breeding, total cholesterol, triglyceride and glucose levels in the plasma and lipid levels in the liver tissue were measured as follows. Total cholesterol, triglyceride, free fatty acid and glucose levels in the plasma were measured twice for each using a commercially available kit (Bio Clinical System). The activity of ALT (alanine aminotransferase) and AST (aspartate aminotransferase) used as liver function indicator were measured twice for each using a commercially available kit (Bio Clinical System, Korea).

PPARγ2 gene expression = assay: RT-PCR analysis of visceral fat tissues; format: in vivo, C57BL/6J mice; details: mRNA, versus HFD
Protocol: (§3) After adding 1 mL of Trizol agent per 0.1 g of visceral fat tissues, the mixture was homogenized and centrifuged at 12,000×g for 10 min at 4° C. The supernatant was transferred to a new tube and 200 μl of chloroform was added to the tube, followed by vortexing. The same procedure was repeated twice and then the supernatant was transferred to a new tube, followed by addition of isopropanol and the supernatant at 1:1 ratio. The mixture was vigorously shaken 10 times and then incubated for 10 min at room temperature, followed by centrifugation at 12,000×g for 10 min at 4° C. to remove the supernatant. After adding 1 mL of 70% ethanol to the remaining pellet, it was centrifuged at 7,500×g for 5 min at 4° C. After removing the ethanol, the RNA pellet contained in the tube was dried for 5 min at 4° C. and dissolved in nuclease-free water. The RNA sample concentration was measured at a wavelength of 260 nm and 280 nm using a UV/VIS spectrophotometer (Beckman coulter, DU730) and the integrity of RNA sample was verified by agarose gel electrophoresis.
(§4) The RNA sample obtained from the visceral fat tissues was transcribed using oligo dT primer and SuperScript reverse transcriptase (GIBCO BRL, Gaithersburg, Md., USA) to synthesize cDNA. The PCR amplification was performed using the cDNA as templates and primers complementary to cDNA 5′ and 3′ flanking sequence. The amplified products were resolved on agarose gel electrophoresis.

TNF-α gene expression = assay: RT-PCR analysis of visceral fat tissues; format: in vivo, C57BL/6J mice; details: mRNA
Protocol: as §3, §4

IL-6 gene expression = assay: RT-PCR analysis of visceral fat tissues; format: in vivo, C57BL/6J mice; details: mRNA
Protocol: as §3, §4

aP2 gene expression = assay: RT-PCR analysis of visceral fat tissues; format: in vivo, C57BL/6J mice; details: mRNA, versus HFD
Protocol: as §3, §4

C/EBPα gene expression = assay: RT-PCR analysis of visceral fat tissues; format: in vivo, C57BL/6J mice; details: mRNA, versus HFD
Protocol: as §3, §4

[4] = Body weight gain, food intake and visceral fat-pad weights in mice fed high-fat diet supplemented with adipic acid; format: in vivo, C57BL/6J mice; details: 0.2% adipic acid in high-fat diet, 10 weeks
Description: as §1, §2

[5] = patients treated for 8 weeks; cited from earlier work

O=C(O)CCCCC(=O)O [adipic acid]
effect on ketosis [1]: effective for improving ketosis | decrease of cholesterol level in liver tissue as compared to HFD [2]: 44% | decrease of free fatty acid level in liver tissue as compared to HFD [2]: 37% | decrease of triglyceride level in liver tissue as compared to HFD [2]: 26% | reduction of liver absolute weight as compared to HFD [2]: 12% | decrease of plasma ALT activity as compared to HFD [3]: 40% | decrease of plasma AST activity as compared to HFD [3]: 27% | lower plasma free fatty acid level as compared to HFD [3]: 32% | lower plasma total cholesterol level as compared to HFD [3]: 24% | lower plasma triglyceride level as compared to HFD [3]: 26% | reduction of fasting blood sugar level as compared to HFD [3]: 25% | ALT ([3]; plasma, mean ± SEM): 7.9 ± 0.78^c IU/L | AST ([3]; plasma, mean ± SEM): 8.9 ± 0.28^b IU/L | Free fatty acid ([3]; plasma, mean ± SEM): 890 ± 56^c uEq/L | Total cholesterol ([3]; plasma, mean ± SEM): 2.66 ± 0.41^b mmol/L | Triglyceride ([3]; plasma, mean ± SEM): 0.89 ± 0.05^b mmol/L | Glucose ([3]; plasma, fasted, mean ± SEM): 6.6 ± 0.41^b mmol/L | expression of PPARγ2 gene (PPARγ2 gene expression): significantly decreased | HFD-induced elevation in the expression of TNF-α (TNF-α gene expression): significantly reversed | HFD-induced elevation in the expression of IL-6 (IL-6 gene expression): significantly reversed | expression of aP2 gene (aP2 gene expression): significantly decreased | expression of C/EBPα gene (C/EBPα gene expression): significantly decreased | daily food intake [4]: no significant change | decrease of body weight gain as compared to HFD [4]: 49% | epididymal fat-pad weight as compared to HFD [4]: significantly reduced | mesenteric fat-pad weight as compared to HFD [4]: significantly reduced | perirenal fat-pad weight as compared to HFD [4]: significantly reduced | reduction of total visceral fat weight as compared to HFD [4]: 21% | retroperitoneal fat-pad weight as compared to HFD [4]: significantly reduced

CCOC(=O)C1=C(COCCN)NC(C)=C(C(=O)OC)C1c1ccccc1Cl.O=C(O)CCCCC(=O)O (stereo not drawn) [amlodipine adipate]
symptoms of hypertension [5]: alleviated symptoms of hypertension

From patent US8614250B2 (Industry-Academic Cooperation Foundation, Yonsei University, priority 2011, dated 2013)
